Reference: patent US20260000686A1, “CANNABIDIOL COMPOSITIONS FOR THE TREATMENT OF INFLAMMATION” (RevRx, LLC, priority 2019, published 2026)

System: patient (joint, muscle, and arthritic aches and pains)
Assay: Case studies: patient-reported pain relief with topical Cryogel and with previously tried treatments
Format: in vivo, human
[1] = Case #19: bilateral inflammation of the knees post exercise/running
[2] = Case #2: chronic knee pain and muscle soreness
[3] = Case #7: chronic lower back pain, history of RA
[4] = Case #8: diabetic, peripheral neuropathy pain in feet
[5] = Case #21: inflammation of the right knee

## COc1ccc2cc([C@H](C)C(=O)[O-])ccc2c1.[Na+] [ALEVER]
Case #5: sore/stiff neck
  relief from previously tried treatment (patient-reported): limited relief

## Cc1ccc(-c2cc(C(F)(F)F)nn2-c2ccc(S(N)(=O)=O)cc2)cc1 [Celebrex]
[1]
  relief from previously tried treatment (patient-reported): Limited Relief

## CC(C)Cc1ccc(C(C)C(=O)O)cc1 (stereo not shown) [Ibuprofen]
[2]
  relief from previously tried treatment (patient-reported): mild pain relief
Case #4: chronic knee pain and muscle soreness
  relief from previously tried treatment (patient-reported): minimal relief
[3]
  relief from previously tried treatment (patient-reported): limit pain relief
[4]
  relief from previously tried treatment (patient-reported): limit pain relief
Case #9: quad pain associated with exercise
  relief from previously tried treatment (patient-reported): no relief
Case #10: Tennis Elbow of the right elbow
  relief from previously tried treatment (patient-reported): No relief
Case #11: upper left trapezius muscle pain
  relief from previously tried treatment (patient-reported): No relief
Case #14: right calf muscle pain
  relief from previously tried treatment (patient-reported): limited relief
Case #15: ankle swelling and soreness
  relief from previously tried treatment (patient-reported): limited relief
Case #16: labrum tear post-surgical repair, pain and soreness
  relief from previously tried treatment (patient-reported): limited relief
Case #17: sciatica nerve pain, upper right hip area
  relief from previously tried treatment (patient-reported): limited relief
Case #18: burning, stinging pain and inflammation in upper right elbow
  relief from previously tried treatment (patient-reported): limited relief
[1]
  relief from previously tried treatment (patient-reported): limited relief
[5]
  relief from previously tried treatment (patient-reported): Limited Relief

## CC(C)C[C@H](CN)CC(=O)O [LYRICA®]
[4]
  relief from previously tried treatment (patient-reported): limit pain relief

## COc1ccc2cc([C@H](C)C(=O)O)ccc2c1 [Naproxen]
[2]
  relief from previously tried treatment (patient-reported): mild pain relief
[3]
  relief from previously tried treatment (patient-reported): limit pain relief
Case #13: quadricep tear or strain, right leg muscle pain
  relief from previously tried treatment (patient-reported): limited relief

## COc1ccc2c3c1O[C@H]1C(=O)CC[C@@]4(O)[C@@H](C2)N(C)CC[C@]314.Cl [OxyContin®]
Case #1: RA, spinal fusion C3-C4, immediately post-op while taking prescription pain management medication, 1 no-pain, 10 most pain
  pain score: 10

## Clc1ccc2nsnc2c1NC1=NCCN1 [Tizanidine]
[3]
  relief from previously tried treatment (patient-reported): limit pain relief

## COc1cccc(C2(O)CCCCC2CN(C)C)c1 (stereo not shown) [Tramadol]
[3]
  relief from previously tried treatment (patient-reported): limit pain relief

## CC(=O)Nc1ccc(O)cc1 [Tylenol]
[1]
  relief from previously tried treatment (patient-reported): Limited relief
[5]
  relief from previously tried treatment (patient-reported): No relief
